Measured values as given in patent US6121431A, “Nucleoside derivatives” (Medivir AB, priority 1990, dated 2000).

system: H9 cells; assay: Cellular toxicity on H9 cells (inhibition of cell multiplication); format: cell-based; details: Homo sapiens, 1 mM, 48 h
Method: Test II. Cellular toxicity
H9 cells, 2×10^7 cells per plate, are incubated in RPMI-1640 medium containing 10% fetal calf serum, 70 mg/l penicillin, 100 mg/l streptomycin and 10 mM hepes, in absence or presence of test compounds. The number of cells per plate is determined after 48 h. Cells incubated in the absence of test compounds then underwent two cell division cycles.
F5000 cells, which are human embryo cells, 1×10^5 cells per plate, are incubated in Eagle's minimal essential medium, supplemented with Earle's sals, non-essential amino acids, 10% fetal calf serum, 10 mM hepes, 70 mg/l penicillin and 100 mg/l streptomycin, in absence or presence of test compounds. The number of cells per plate is determined after 48 h. Cells incubated in the absence of test compounds underwent one cell division cycle.

Row | SMILES | inhibition at 1000 µM
1 | Nc1ccn([C@H]2C[C@H](CO)[C@@H](CO)O2)c(=O)n1 [1-2',3'-Dideoxy-3'-C-(hydroxymethyl)-β-D-erythropentofuranosyl]-cytosine] | 50%

system: human immuno deficiency virus; assay: Effect of compounds of the formula I on HIV in H9 cells (HIV multiplication in cell culture, HIV antigen containing cells); format: cell-based; details: Human immunodeficiency virus 1, HIV (HTLV-IIIB), 6-7 days, 37° C., read-out: Concentration for 50% inhibition (IC50) of human immuno deficiency virus multiplication in cell culture
Method: Test I. Effect of compounds of the formula I on HIV in H9 cells
HIV Infection of H9 Cells
H9 cells, 10^5 cells per well on a 24 well plate, suspended in 2 ml RPMI-medium containing 10% fetal calf serum […] penicillin, 10 mg/mil streptomycin sulfate and 2 mg/ml polybrene are exposed to HIV (HTLV-IIIB) and different concentrations of the test compounds. The plates are incubated at 37° C. in 5% CO2 for 6-7 days. The contents in each well is then homogenized with a pipette and transferred to a centrifuge tube. After centrifugation for 10 min at 1500 rpm the supernatant is removed and the cell pellet is analyzed by fixing in methanol on glass plates. Human HIV positive serum diluted 1:80 or 1:160 is added and incubated for 30 min at 37° C. The plate is then washed with phosphate-buffered saline (PBS) containing Ca^2+ and Mg^2+. Sheep antihuman conjugate (FITC) is added and after a new incubation the plate is again washed with PBS. Contrast staining is done with Evans blue and after drying the frequency of HIV antigen containing cells is determined in a microscope.

Row | IC50 | SMILES
2 | 0.01 µM | Nc1ccn([C@H]2C[C@H](CO)[C@@H](CO)O2)c(=O)n1 [1-2',3'-Dideoxy-3'-C-(hydroxymethyl)-β-D-erythropentofuranosyl]-cytosine]
3 | 10 µM | Cc1cn([C@@H]2C[C@H](CO)[C@@H](CO)O2)c(=O)[nH]c1=O [1-(2',3'-Dideoxy-3'-C-(hydroxymethyl)-α-D-erythro-pentafuranosyl]thymine]
4 | 5 µM | Nc1ccn([C@@H]2C[C@H](CO)[C@@H](CO)O2)c(=O)n1 [1-[2',3'-Dideoxy-3'-C-(hydroxymethyl)-α-D-erythro-pentafuranosyl]cytosine]
5 | 5 µM | Cc1cn([C@H]2C[C@H](CO)[C@@H](CO)O2)c(=O)[nH]c1=O [1-[2',3'-Dideoxy-3'-C-(hydroxymethyl)-β-D-erythro-pentofuranosyl]-thymine]
6 | 10 µM | Nc1ncnc2c1ncn2[C@@H]1C[C@H](CO)[C@@H](CO)O1 [9-[2',3'-Dideoxy-3'-C-(hydroxymethyl)-α-D-erythropentofuranosyl]-adenosine]
